Calls of active or inactive are those of the source.
Key:
Type in all cases: functional, organism-based
[1] = system: Staphylococcus aureus; assay: Antimicrobial activity against Staphylococcus aureus by agar diffusion test
[2] = system: Bacillus subtilis; assay: Antimicrobial activity against Bacillus subtilis by agar diffusion test
[3] = system: Streptomyces viridochromogenes; assay: Antimicrobial activity against Streptomyces viridochromogenes Tu57 by agar diffusion test
[4] = system: Escherichia coli; assay: Antimicrobial activity against Escherichia coli by agar diffusion test
[5] = system: Candida albicans; assay: Antimicrobial activity against Candida albicans by agar diffusion test
[6] = system: Rhizomucor miehei; assay: Antimicrobial activity against Mucor miehei by agar diffusion test
[7] = system: Chlorella vulgaris; assay: Antimicrobial activity against Chlorella vulgaris by agar diffusion test
[8] = system: Chlorella sorokiniana; assay: Antimicrobial activity against Chlorella sorokiniana by agar diffusion test
[9] = system: Desmodesmus subspicatus; assay: Antimicrobial activity against Scenedesmus subspicatus by agar diffusion test

Measured: Activity

OCc1ccc(-c2nccc3c2[nH]c2ccccc23)o1
inactive: all assays above

COC(OCc1ccc(C(OC)OCc2ccc(C=O)o2)o1)c1ccc(CO)o1 (configuration not stated)
inactive: all assays above

CC(=O)OCc1ccc(COC(C)=O)o1
inactive: all assays above

COC(OCc1ccc(C=O)o1)c1ccc(CO)o1 (configuration not stated)
inactive: all assays above

COC(=O)/C=C/C(=O)c1nccc2c1[nH]c1ccccc12
inactive: all assays above

O=C(O)/C=C/C(=O)c1nccc2c1[nH]c1ccccc12
inactive: all assays above

CC1=C(O)C(=O)/C(=C\c2ccc(CO)o2)O1
inactive: all assays above

CC(=O)OCc1ccc(CO)o1
inactive: all assays above
